This passage reports IC50 and TD50 results from patent US8008303B2, “Biphenyl derivatives and their use in treating hepatitis C” (AstraZeneca AB, priority 2005, dated 2011).

Structures are written as SMILES. Read-outs that look alike come from different tables or passages of the source.

The test system of data set [1] is HCV replicon cells Huh 9B. The data set can be described thus: HCV replicon assay (luciferase readout). It is filed as cell-based. In short, it runs like this: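 Compounds, made up at twice final strength (final DMSO 1%), were added to subgenomic replicon cells one day after plating. Incubation then ran 72 h at 37 °C, 5% CO2, without G418. Replication was quantified as firefly luciferase luminescence in lysed cells, with cytotoxicity assessed on a duplicate clear plate.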
(In general: In antiviral work, replicon cells carry a viral genome segment that copies itself.)

The subject of data set [2] is HCV replicon cells Huh 9B. Type of data set: cell-based.
The mark [3] stands for this setting: Hepatitis C virus, 72 h, concentration reducing replicon level (luciferase activity) by 50% vs untreated cell control, 72 h incubation.
[4] abbreviates: concentration reducing total cell area by 50% relative to DMSO controls, methylene blue, absorbance 620 nm, 72 h incubation.

As to `Cc1cc(NC(=O)C2CC2)ccc1-c1cccc(C(=O)Nc2ccc(CN3CCS(=O)(=O)CC3)cc2)c1` [Example 131, 4′-(Cyclopropanecarbonyl-amino)-2′-methyl-biphenyl-3-carboxylic acid [4-(1,1-dioxo-1lambda*6*-thiomorpholin-4-ylmethyl)-phenyl]-amide], in data set [1] (setting [3]), the IC50 (in general, the point on the concentration scale where inhibition reaches its midpoint) was 1 to 5 µM. Also, in data set [2] (setting [4]), the TD50 entry was “* (* < 50 μM)”.
`Cc1ccc(C(=O)Nc2ccc(N3CCOCC3)cc2)cc1-c1ccc(C(=O)Nc2ccc(CN3CCCC3)cc2)cc1` [Example 75, 6-Methyl-biphenyl-3,4′-dicarboxylic acid 3-[(4-morpholin-4-yl-phenyl)-amide] 4′-[(4-pyrrolidin-1-ylmethyl-phenyl)-amide]] displayed an IC50 in data set [1] of over 5 µM. Also, in data set [2], the TD50 result was “* (key: * < 50 μM; ** > 50 μM)”.
The like results for `Cc1ccc(C(=O)Nc2ccc(N3CCOCC3)cc2)cc1-c1ccc(C(=O)NCc2cccc(Br)c2)cc1` [Example 52, 6-Methyl-biphenyl-3,4′-dicarboxylic acid 4′-(3-bromo-benzylamide) 3-[(4-morpholin-4-yl-phenyl)-amide]] were, in that order, 1 to 5 µM and “** (key: * < 50 μM; ** > 50 μM)”.
Taken in the same sequence, the figures for `CC(=O)Nc1cccc(NC(=O)c2ccc(-c3cc(C(=O)Nc4ccc(N5CCOCC5)cc4)ccc3C)cc2)c1` [Example 61, 6-Methyl-biphenyl-3,4′-dicarboxylic acid 4′-[(3-acetylamino-phenyl)-amide] 3-[(4-morpholin-4-yl-phenyl)-amide]] were 1 to 5 µM and “** (key: * < 50 μM; ** > 50 μM)”.
For the molecule `Cc1ccc(NC(=O)c2ccc(N3CCOCC3)cc2)cc1-c1ccc(C(=O)NCc2cccc(OC(F)(F)F)c2)cc1` [Example 92, 2′-Methyl-5′-(4-morpholin-4-yl-benzoylamino)-biphenyl-4-carboxylic acid 3-trifluoromethoxy-benzylamide], the IC50 in data set [1] (setting [3]) fell in the range of 1 to 5 µM. Moreover, the TD50 result in data set [2] (setting [4]) is “** (** > 50 μM)”.
Taken in the same sequence, the figures for `Cc1ccc(NC(=O)C2CCCCCC2)cc1-c1ccc(C(=O)Nc2ccc(CN3CCS(=O)(=O)CC3)cc2)cc1` [Example 164, 5′-(Cycloheptanecarbonyl-amino)-2′-methyl-biphenyl-4-carboxylic acid [4-(1,1-dioxo-1lambda*6*-thiomorpholin-4-ylmethyl)-phenyl]-amide] were under 1 µM and “* (* < 50 μM)”.
Taken in the same sequence, the figures for `Cc1ccc(NC(=O)C2CCCCC2)cc1-c1ccc(C(=O)Nc2ccc(CCN3CCS(=O)(=O)CC3)cc2)cc1` [Example 242, 5′-(Cyclohexanecarbonyl-amino)-2′-methyl-biphenyl-4-carboxylic acid {4-[2-(1,1-dioxo-1lambda*6*-thiomorpholin-4-yl)-ethyl]-phenyl}-amide] were 1 to 5 µM and “* (* < 50 μM)”.
Regarding `CCN(CC)CCNC(=O)c1ccc(NC(=O)c2ccc(-c3cc(C(=O)NC4CC4)ccc3C)cc2)cc1` [Example 208, 6-Methyl-biphenyl-3,4′-dicarboxylic acid 3-cyclopropylamide 4′-{[4-(2-diethylamino-ethylcarbamoyl)-phenyl]-amide}], the IC50 in data set [1] was over 5 µM. Also, the TD50 entry in data set [2] was “* (key: * < 50 μM; ** > 50 μM)”.
`Cc1ccc(NC(=O)c2ccco2)cc1-c1ccc(C(=O)Nc2ccc3cc[nH]c3c2)cc1` [Example 233, Furan-2-carboxylic acid [4′-(1H-indol-6-ylcarbamoyl)-6-methyl-biphenyl-3-yl]-amide] had an IC50 in data set [1] (setting [3]) of under 1 µM. Besides, the TD50 entry in data set [2] (setting [4]) is listed as “* (* < 50 μM)”.
In the case of `COc1ccc(NC(=O)c2ccc(-c3cc(C(=O)Nc4ccc(N5CCOCC5)cc4)ccc3C)cc2)cn1` [Example 2, 6-Methyl-biphenyl-3,4′-dicarboxylic acid 4′-[(6-methoxy-pyridin-3-yl)-amide] 3-[(4-morpholin-4-yl-phenyl)-amide]], in data set [1], the IC50 is 1 to 5 µM. The TD50 result in data set [2] is “** (key: * < 50 μM; ** > 50 μM)”.
With `Cc1ccc(NC(=O)C2CCCCC2)cc1-c1ccc(C(=O)Nc2ccc(CO)cc2)cc1` [Example 232, 5′-(Cyclohexanecarbonyl-amino)-2′-methyl-biphenyl-4-carboxylic acid (4-hydroxymethyl-phenyl)-amide], the IC50 in data set [1] (setting [3]) was under 1 µM. Besides, in data set [2] (setting [4]), the TD50 result is reported as “* (* < 50 μM)”.
The like results for `Cc1ccc(NC(=O)C2CC2)cc1-c1ccc(C(=O)Nc2ccccc2CN2CCCCC2)cc1` [Example 224, 5′-(Cyclopropanecarbonyl-amino)-2′-methyl-biphenyl-4-carboxylic acid (2-piperidin-1-ylmethyl-phenyl)-amide] were, in that order, 1 to 5 µM and “* (* < 50 μM)”.
Regarding `Cc1ccc(C(=O)Nc2ccc(N3CCOCC3)cc2)cc1-c1ccc(C(=O)Nc2cc(Br)cc3cc[nH]c23)cc1` [Example 55, 6-Methyl-biphenyl-3,4′-dicarboxylic acid 4′-[(5-bromo-1H-indol-7-yl)-amide] 3-[(4-morpholin-4-yl-phenyl)-amide]], in data set [1], the IC50 fell in the range of 1 to 5 µM. The TD50 entry in data set [2] is “** (key: * < 50 μM; ** > 50 μM)”.
The molecule `Cc1ccc(NC(=O)C2CC2)cc1-c1ccc(C(=O)Nc2ccc(CN3CCCCC3)cc2)cc1` [Example 228, 5′-(Cyclopropanecarbonyl-amino)-2′-methyl-biphenyl-4-carboxylic acid (4-piperidin-1-ylmethyl-phenyl)-amide] registered an IC50 in data set [1] (setting [3]) of 1 to 5 µM. Also, the TD50 result in data set [2] (setting [4]) is “* (* < 50 μM)”.
Taken in the same sequence, the figures for `Cc1ccc(NC(=O)C2CC2)cc1-c1ccc(C(=O)Nc2ccc(-n3cncn3)cc2)cc1` [Example 218, 5′-(Cyclopropanecarbonyl-amino)-2′-methyl-biphenyl-4-carboxylic acid (4-[1,2,4]triazol-1-yl-phenyl)-amide] were under 1 µM and “* (* < 50 μM)”.
The like results for `Cc1cccc(CNC(=O)c2ccc(-c3cc(NC(=O)c4cn[nH]c4)ccc3C)cc2)c1` [Example 214, 1H-Pyrazole-4-carboxylic acid [6-methyl-4′-(3-methyl-benzylcarbamoyl)-biphenyl-3-yl]-amide] were, in that order, over 5 µM and “* (* < 50 μM)”.
In turn, `Cc1ccc(C(=O)Nc2ccc(N3CCOCC3)cc2)cc1-c1ccc(C(=O)NCCC(C)C)cc1` [Example 4, 6-Methyl-biphenyl-3,4′-dicarboxylic acid 4′-[(3-methyl-butyl)-amide] 3-[(4-morpholin-4-yl-phenyl)-amide]] came in with an IC50 in data set [1] of 1 to 5 µM. Further, the TD50 result in data set [2] was “** (key: * < 50 μM; ** > 50 μM)”.
Taken in the same sequence, the figures for `Cc1ccc(C(=O)Nc2ccc(N3CCOCC3)cc2)cc1-c1ccc(C(=O)Nc2cccc(C(C)O)c2)cc1` (stereo not shown) [Example 31, 6-Methyl-biphenyl-3,4′-dicarboxylic acid 4′-{[3-(1-hydroxy-ethyl)-phenyl]-amide} 3-[(4-morpholin-4-yl-phenyl)-amide]] were 1 to 5 µM and “** (key: * < 50 μM; ** > 50 μM)”.
As for `Cc1ccc(NC(=O)c2cccnc2)cc1-c1ccc(C(=O)Nc2ccc(CN3CCS(=O)(=O)CC3)cc2)cc1` [Example 156, N-{4′-[4-(1,1-Dioxo-1lambda*6*-thiomorpholin-4-ylmethyl)-phenylcarbamoyl]-6-methyl-biphenyl-3-yl}-nicotinamide], in data set [1] (setting [3]), the concentration for half-maximal inhibition (IC50) lay within 1 to 5 µM. For the same molecule, the TD50 result in data set [2] (setting [4]) is given as “* (* < 50 μM)”.
Taken in the same sequence, the figures for `Cc1cccc(CNC(=O)c2ccc(-c3cc(NC(=O)c4ccncc4)ccc3C)cc2)c1` [Example 215, N-[6-Methyl-4′-(3-methyl-benzylcarbamoyl)-biphenyl-3-yl]-isonicotinamide] were over 5 µM and “* (* < 50 μM)”.
Taken in the same sequence, the figures for `Cc1ccc(NC(=O)C2CCCCC2)cc1-c1ccc(NC(=O)c2ccc(CN3CCS(=O)(=O)CC3)cc2)cc1` [Example 150, N-[5′-(Cyclohexanecarbonyl-amino)-2′-methyl-biphenyl-4-yl]-4-(1,1-dioxo-1lambda*6*-thiomorpholin-4-ylmethyl)-benzamide] were under 1 µM and “* (* < 50 μM)”.
For the molecule `Cc1ccc(C(=O)Nc2ccc(N3CCOCC3)cc2)cc1-c1ccc(C(=O)NCc2ccc(N3CCOCC3)cc2)cc1` [Example 20, 6-Methyl-biphenyl-3,4′-dicarboxylic acid 4′-(4-morpholin-4-yl-benzylamide) 3-[(4-morpholin-4-yl-phenyl)-amide]], the IC50 in data set [1] is over 5 µM. The TD50 result in data set [2] was “** (key: * < 50 μM; ** > 50 μM)”.
The like results for `Cc1ccc(C(=O)Nc2ccc(N3CCOCC3)cc2)cc1-c1ccc(C(=O)Nc2ccc(N)cc2)cc1` [Example 53, 6-Methyl-biphenyl-3,4′-dicarboxylic acid 4′-[(4-amino-phenyl)-amide] 3-[(4-morpholin-4-yl-phenyl)-amide]] were, in that order, 1 to 5 µM and “** (key: * < 50 μM; ** > 50 μM)”.
`Cc1ccc(C(=O)Nc2ccc(N3CCOCC3)cc2)cc1-c1ccc(NC(=O)c2nc3ccccc3nc2O)cc1` [Example 104, 3-Hydroxy-quinoxaline-2-carboxylic acid [2′-methyl-5′-(4-morpholin-4-yl-phenylcarbamoyl)-biphenyl-4-yl]-amide] gave a half-inhibitory concentration (IC50) in data set [1] (setting [3]) of 1 to 5 µM. In addition, the TD50 result in data set [2] (setting [4]) is given as “** (** > 50 μM)”.
Consider `Cc1ccc(NC(=O)c2ccc(N3CCOCC3)cc2)cc1-c1ccc(C(=O)Nc2ccc(Br)c(Cl)c2)cc1` [Example 90, 2′-Methyl-5′-(4-morpholin-4-yl-benzoylamino)-biphenyl-4-carboxylic acid (4-bromo-3-chloro-phenyl)-amide], for which the concentration for half-maximal inhibition (IC50) in data set [1] (setting [3]) is over 5 µM. In data set [2] (setting [4]), the TD50 entry is “** (** > 50 μM)”.
As for `COc1ccccc1C(=O)Nc1ccc(-c2cccc(C(=O)Nc3ccc(N4CCOCC4)cc3)c2)c(C)c1` [Example 115, 4′-(2-Methoxy-benzoylamino)-2′-methyl-biphenyl-3-carboxylic acid (4-morpholin-4-yl-phenyl)-amide], the IC50 in data set [1] (setting [3]) was 1 to 5 µM. In data set [2] (setting [4]), the TD50 entry is reported as “* (* < 50 μM)”.
